Consider one molecule from US20260276656A1, “GUT MICROBIOTA-RELATED METHODS FOR TREATING DEMENTIA AND AGE-DEPENDENT COGNITIVE DECLINE” (Albert-Ludwigs-Universitat Freiburg, priority 2019, published 2026).

One assay concerns C57BL/6J mice. The experiment in a line: T-maze spontaneous alternation test (spatial working memory). The class given is in vivo, mouse. Particulars: for spatial working memory (T maze test): systemic (intraperitoneal) injection, FIG. 11 left; for T maze performance: 5 mg/kg i.p. 1 h before. The protocol: In order to acutely deplete the gut microbiota, 15-16 months old SPF males were treated via oral gavage with a mixture of antibiotics (ABX), containing Cefoxitin (Santa Cruz Biotechnology), Gentamicin (Sigma-Aldrich) Metronidazole (Sigma-Aldrich), and Vancomycin (Hikma-pharma), each 10 mg/kg in sterile 1×PBS, for three consecutive days. On the fourth day, the mice were treated with one dose of Clindamycin hydrochloride (33.3 mg/kg) (Sigma-Aldrich). Fecal microbiota transplantations (FMTs) were started 24 h later. To deplete csf1-dependent cells in vivo, including microglia, mice were provided with CSF1R-inhibitor PLX5622 (Plexxicon Inc.) mixed into AIN-76A standard chow at 1200 mg/kg (Research Diets Inc.) ad libitum. Respective controls received AIN-76A standard chow. Mice were injected with 5 mg/kg δ-valerobetaine (MCAT, Germany) 1 h before behavioral testing.
For microbiota depletion studies, SPF mice were treated with 1 mg/ml of ampicillin (Auromedics), neomycin sulfate (Fisher), streptomycin (Sigma) and 0.5 mg/ml of vancomycin (Sagent) in the drinking water for 4-5 weeks (Khosravi et al., 2014). These mice were recolonized via FMT, which was achieved by oral gavage of a faecal slurry. Recipient mice had the food removed from the cage for 2 h prior to FMT. The faecal slurry was obtained by pooling faecal pellets from 8-14 donor mice. The pellets were weighed and resuspended by vortexing for 1 min in 1 mL PBS per 300 mg of faeces. After pelleting larger particles by centrifugation at 500×g for 5 min, the supernatant was collected for FMT. Each recipient mouse received 150 μl of faecal slurry by oral gavage. The remaining slurry was stored at −80° C. for 16S rRNA sequencing. Following FMT, the cages of recipient mice were replenished with dirty bedding and fresh faecal pellets from donor mice once and twice a week, respectively. Faecal pellets for 16S rRNA sequencing were collected the day before FMT and at the end of the experiment and were stored at −80° C. for DNA extraction. For re-colonization of ABX treated mice, FMTs from 8 weeks old or 15-16 months old males were undergone. Fresh fecal pellets are collected under a sterile hood and directly thoroughly homogenized in 0.1% L-Cysteine hydrochloride monohydrate in 1×PBS in order to maintain anaerobic microbes. The homogenates were spun down for 1 min, 200 g at 4° C. and the turbid supernatant was used to orally and rectally gavage the recipient mice. The FMT was performed twice 72 h apart.
NNN-trimethyl-5-aminovalerate was dissolved in 0.9% NaCl and administered i.p. at a dose of 200 mg/kg in a volume of 10 ml/kg. As control the vehicle NaCl was injected.
Mice were tested 40 min after drug- or vehicle injection or 4 weeks after FMT. We first performed the training run for the Novel-object recognition test, followed by the T maze test and then 6 h after the training session mice were tested in the Novel object recognition test. Spatial working memory was tested using the continuous spontaneous alternation task in a T-maze as described previously (Spowart-Manning, L. et al). Briefly, animals were set into the base of a T-maze and allowed to explore a randomly assigned T-maze arm until it returned to the base arm. Subsequently, the blocked arm was opened, and the animal was allowed to explore the complete maze. Once one arm of the T-maze was entered, the other arm was blocked until the animal returned to the base arm. Then, the exit of the base arm was blocked for 5 s and the animal was allowed to explore the maze again. The experiment was stopped after 14 free choice arm entries. Arm entries were scored as alternations if an animal chose the opposing arm compared to the arm visited immediately prior to the scored instance. The Novel Object Recognition (NOR) task was applied to evaluate recognition memory as published previously (Antunes, M. & Biala, G. et al). During the habituation phase, each mouse was allowed to explore two similar objects within a total exploration time of 20 s. […]

Assay [1] deals with parvalbumin-positive interneurons. The experiment in a line: Spontaneous IPSC recordings from parvalbumin-positive interneurons in acute hippocampal slices. The class given is cell-based. As to conditions: bath-applied, 10 μM; acute mouse hippocampal slices, area CA1. The protocol:
Mice were anesthetized and decapitated, after which the brain was quickly removed and placed into oxygenated, ice-cold, high-sucrose artificial cerebrospinal fluid (hsACSF), containing (in mM): 150 sucrose, 50 NaCl, 25 NaHCO3, 10 dextrose, 2.5 KCl, 1 NaH2PO4·H2O, 0.5 CaCl2), and 7 MgCl2. After 2 min in hsACSF, the brain was blocked, glued to the stage of a Vibratome (VTS1000; Leica, Bannockburn, IL), and cut into 300-μm horizontal brain slices containing hippocampus. Slices were then placed in a chamber containing ACSF (in mM: 124 NaCl, 3 KCl, 1.25 NaH2PO4·H2O, 2 MgSO4·7H2O, 26 NaHCO3, 10 dextrose, and 2 CaCl2)). […]
For recording, slices were placed in a submerged recording chamber (Warner Instruments, Hamden, CT) with oxygenated ACSF heated to 32° C. and flowing at 2-4 ml/min. […] Data were obtained using an Axopatch 1D amplifier (Axon Instruments, Foster City, CA); data were digitized at 10 kHz and recorded using a Digidata 1320A and pClamp 8.2 software (Molecular Devices, Sunnyvale, CA). […] After obtaining a stable voltage-clamp recording from a CA1 interneuron, the recording was switched to current-clamp mode and injected steps of hyperpolarizing and depolarizing current were used to determine the class of cell being recorded using published firing patterns and action potential (AP) properties (Butt et al., 2005; Flames and Marin, 2005). […]

As to `C[N+](C)(C)CCCCC(=O)[O-]` [NNN-trimethyl-5-aminovalerate, 5-(trimethylammonio) pentanoate], the “T maze: improvement in learning and memory after FMT from young mice” value with C57BL/6J mice (old mice (15-16 months) +ABX+yFMT, 5 mg/kg i.p. 1 h before testing, FIG. 10F) is “abolished”. The “spatial working memory (T maze test)” value is “no additional impairing effects” in the assay on C57BL/6J mice (old mice (20-24-month-old)) and “reduced” with C57BL/6J mice (young mice (2-month-old), PBS control). For the same molecule, the T maze performance entry is listed as “no additional deteriorating effect” in the assay with C57BL/6J mice (old mice that had received gut microbiota from old mice (old+ABX+oFMT), FIG. 10F) and “significantly worse” with C57BL/6J mice (young adult mice (8 weeks), versus vehicle, FIG. 10B). The “frequencies of spontaneous IPSCs (spIPSCs) in parvalbumin-positive interneurons” value in assay [1] is “increase”.
